# Laboratory results: paper PMC10601079 (ACS Omega, 2023)
# Test system: ACS
# Assay: coupled spectrophotometric assay of AMP formation
# Assay type: biochemical, Gordonia sp. NB4-1Y
# Details: 2.5 mM ATP, 1.5 mM CoA, 5 mM MgCl2, 1 mM DTT, 50 mM potassium phosphate pH 7.5, 25 °C
row,Km [mM],Structure (SMILES)
1,12.5 ± 0.7,"O=C(O)CCCC(F)(F)F [1:4 FTCA, 5,5,5-trifluoropentanoic acid]"
2,0.109 ± 0.011,CCCCC(=O)O [pentanoic acid]
3,1.7 ± 0.2,CCC(=O)O [propionic acid]
4,78.3 ± 7.4,CC(=O)O [acetate]
